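Exposure lasted 48 hours, with cells grown in 96-well plates and compounds tested at five concentrations. GI50 = concentration required for 50% inhibition of growth.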 Active and inactive are the calls of the source. No stated cut-off is given here; in the data, active = GI50 up to about 1.1 µM and inactive = higher.
Legend:
Assay in all cases: NCI-60 cell line screen, 48 h
UO-31 = tested on: UO-31
EKVX = tested on: EKVX
SK-MEL-5 = tested on: SK-MEL-5
HT-29 = tested on: HT-29
NCI-H226 = tested on: NCI-H226
SK-MEL-28 = tested on: SK-MEL-28
TK-10 = tested on: TK-10
MOLT-4 = tested on: MOLT-4
HCT-116 = tested on: HCT-116
Malme-3M = tested on: Malme-3M
SK-OV-3 = tested on: SK-OV-3
UACC-62 = tested on: UACC-62
KM12 = tested on: KM12
SF-539 = tested on: SF-539
MDA-MB-435 = tested on: MDA-MB-435
SNB-75 = tested on: SNB-75
NCI-H23 = tested on: NCI-H23
OVCAR-3 = tested on: OVCAR-3
OVCAR-5 = tested on: OVCAR-5
HOP-62 = tested on: HOP-62

Measured: GI50

CSc1c(C#N)c(=O)n(N)c2[nH]nc(C)c12
inactive: UO-31 > 100 µM | EKVX > 100 µM | SK-MEL-5 > 100 µM | HT-29 > 100 µM | NCI-H226 > 100 µM | SK-MEL-28 > 100 µM | TK-10 > 100 µM | MOLT-4 > 100 µM | HCT-116 > 100 µM | Malme-3M > 100 µM | SK-OV-3 > 100 µM | UACC-62 > 100 µM | KM12 > 100 µM | SF-539 > 100 µM | MDA-MB-435 > 100 µM | SNB-75 > 100 µM | NCI-H23 > 100 µM

COC(=O)CNCC1OC2OC(C)(C)OC2C1N=[N+]=[N-] (stereo unspecified)
inactive: UO-31 > 100 µM | EKVX > 100 µM | SK-MEL-5 > 100 µM | HT-29 > 100 µM | OVCAR-3 > 100 µM | NCI-H226 > 100 µM | OVCAR-5 > 100 µM | SK-MEL-28 > 100 µM | TK-10 > 100 µM | MOLT-4 > 100 µM | HCT-116 > 100 µM | SK-OV-3 > 100 µM | UACC-62 > 100 µM | HOP-62 > 100 µM | KM12 > 100 µM | SF-539 > 100 µM | MDA-MB-435 > 100 µM | SNB-75 > 100 µM

CCCCCCCCC/C=C1\CC(CO)(COC(=O)c2ccccc2)OC1=O (stereo unspecified)
inactive: UO-31 16.3 µM | EKVX 15.3 µM | SK-MEL-5 12.5 µM | HT-29 19.1 µM | OVCAR-3 22.4 µM | NCI-H226 23.2 µM | OVCAR-5 15.9 µM | SK-MEL-28 16.7 µM | TK-10 18.6 µM | MOLT-4 38.2 µM | HCT-116 22.2 µM | Malme-3M 14.5 µM | SK-OV-3 18.3 µM | UACC-62 25.4 µM | HOP-62 14.8 µM | KM12 21.4 µM | MDA-MB-435 16 µM | SNB-75 15.9 µM | NCI-H23 19.4 µM

Cc1ccccc1CN1CC2=C(CCN(Cc3ccccc3)C2=O)N2CCN=C12
inactive: UO-31 6.81 µM | EKVX 6.32 µM | SK-MEL-5 2.63 µM | HT-29 5.31 µM | OVCAR-3 4.48 µM | NCI-H226 3.56 µM | OVCAR-5 8.41 µM | SK-MEL-28 29.2 µM | TK-10 7.35 µM | MOLT-4 9.66 µM | HCT-116 4.06 µM | SK-OV-3 7.78 µM | UACC-62 11.1 µM | HOP-62 9.16 µM | KM12 46.2 µM | SF-539 52.4 µM | MDA-MB-435 4.74 µM | SNB-75 6.08 µM | NCI-H23 4.62 µM

Cc1ccc(-c2n[nH]c(=O)n2N2C(=O)c3ccccc3C2=O)cc1
inactive: UO-31 > 100 µM | SK-MEL-5 > 100 µM | HT-29 > 100 µM | OVCAR-3 > 100 µM | NCI-H226 > 100 µM | OVCAR-5 > 100 µM | SK-MEL-28 > 100 µM | TK-10 > 100 µM | MOLT-4 > 100 µM | HCT-116 > 100 µM | Malme-3M > 100 µM | UACC-62 > 100 µM | HOP-62 > 100 µM | KM12 > 100 µM | SF-539 > 100 µM | MDA-MB-435 > 100 µM | SNB-75 > 100 µM | NCI-H23 > 100 µM

CSC1=N/C(=C\c2ccc(C)cc2)C(=O)N1CN1CCCCC1
inactive: UO-31 37.2 µM | EKVX 75.3 µM | SK-MEL-5 > 100 µM | HT-29 38.5 µM | OVCAR-3 > 100 µM | NCI-H226 > 100 µM | OVCAR-5 > 100 µM | SK-MEL-28 > 100 µM | TK-10 > 100 µM | MOLT-4 > 100 µM | HCT-116 84.9 µM | Malme-3M > 100 µM | SK-OV-3 > 100 µM | UACC-62 > 100 µM | HOP-62 > 100 µM | KM12 > 100 µM | MDA-MB-435 > 100 µM | SNB-75 69.5 µM | NCI-H23 > 100 µM

CN(C)/N=C1\CC(c2ccccc2)C(C#N)(C#N)C1(C#N)C#N (stereo unspecified)
inactive: UO-31 18.6 µM | EKVX 41.6 µM | SK-MEL-5 11.6 µM | HT-29 26.1 µM | NCI-H226 23.8 µM | OVCAR-5 25.6 µM | SK-MEL-28 19.2 µM | TK-10 17.5 µM | MOLT-4 4.53 µM | HCT-116 17.8 µM | Malme-3M 16.9 µM | SK-OV-3 50.1 µM | UACC-62 16 µM | HOP-62 24.4 µM | KM12 49.3 µM | SF-539 41.4 µM | MDA-MB-435 27.6 µM | SNB-75 15.7 µM | NCI-H23 24.1 µM

CC(CC(C)[C@H]1CCC2[C@H]3C(CC[C@@]21C)[C@@]1(C)CCC(O)C[C@H]1C[C@@H]3O)C(=O)O (stereo partly specified)
inactive: UO-31 66.2 µM | EKVX > 100 µM | HT-29 > 100 µM | NCI-H226 > 100 µM | OVCAR-5 > 100 µM | SK-MEL-28 > 100 µM | TK-10 > 100 µM | MOLT-4 > 100 µM | HCT-116 > 100 µM | Malme-3M > 100 µM | UACC-62 > 100 µM | HOP-62 > 100 µM | KM12 > 100 µM | SF-539 > 100 µM | MDA-MB-435 > 100 µM | SNB-75 > 100 µM | NCI-H23 > 100 µM

COC1OC(C(C)O)C2OC(C)(C)OC12 (stereo unspecified)
inactive: UO-31 > 100 µM | EKVX > 100 µM | SK-MEL-5 > 100 µM | HT-29 > 100 µM | OVCAR-3 > 100 µM | NCI-H226 > 100 µM | OVCAR-5 > 100 µM | SK-MEL-28 > 100 µM | TK-10 > 100 µM | MOLT-4 > 100 µM | HCT-116 > 100 µM | SK-OV-3 > 100 µM | UACC-62 > 100 µM | HOP-62 > 100 µM | KM12 > 100 µM | SF-539 > 100 µM | MDA-MB-435 > 100 µM | SNB-75 > 100 µM | NCI-H23 > 100 µM

CC1=C(C#N)c2nc3ccccc3n2C(=O)C1(C)CCO (stereo unspecified)
inactive: UO-31 > 100 µM | EKVX > 100 µM | SK-MEL-5 > 100 µM | HT-29 > 100 µM | OVCAR-3 > 100 µM | NCI-H226 > 100 µM | OVCAR-5 > 100 µM | SK-MEL-28 > 100 µM | TK-10 > 100 µM | HCT-116 > 100 µM | Malme-3M > 100 µM | SK-OV-3 > 100 µM | UACC-62 > 100 µM | HOP-62 > 100 µM | SF-539 > 100 µM | MDA-MB-435 > 100 µM | SNB-75 > 100 µM | NCI-H23 > 100 µM

O=C(O)CNCCc1ccccc1
inactive: UO-31 > 100 µM | EKVX > 100 µM | SK-MEL-5 > 100 µM | HT-29 > 100 µM | OVCAR-3 > 100 µM | NCI-H226 > 100 µM | OVCAR-5 > 100 µM | SK-MEL-28 > 100 µM | TK-10 > 100 µM | HCT-116 > 100 µM | Malme-3M > 100 µM | SK-OV-3 > 100 µM | UACC-62 > 100 µM | HOP-62 > 100 µM | KM12 > 100 µM | MDA-MB-435 > 100 µM | SNB-75 > 100 µM | NCI-H23 > 100 µM
